Laboratory results: patent US20240325330A1, “NEW METHOD TO TREAT ACIDOSIS RELATED DISEASES WITH ACETOACETATE” (INSTITUT NATIONAL DE LA SANTÉ ET DE LA RECHERCHE MÉDICALE, priority 2021, published 2024)

Key:
[1] = test system: human monocytes differentiated into macrophages under lactic acidosis (LA-Mφ); assay: Mitochondrial membrane potential (MitoTracker Green / Deep Red flow cytometry) in macrophages under lactic acidosis; format: cell-based; details: 5 mM AcAc, 10 mM lactic acid (pHe 6.5), LA-Mφ+AcAc vs LA alone; data not shown
Protocol: Peripheral blood mononuclear cells (PBMC) were obtained from healthy human volunteers (Blood collection center, Angers, France; agreement ANG-2017-01) by standard density-gradient centrifugation on lymphocyte separation medium (Eurobio, Courtaboeuf, France). CD14+ monocytes were then isolated by positive magnetic cell-sorting (Miltenyi Biotec, Bergisch Gladbach, Germany). Monocytes (1×10^6 cells/mL) were cultured in complete medium (CM) consisting of RPMI 1640 (Lonza, Verviers, Belgium) supplemented with 10% fetal calf serum (FCS) (Eurobio), 2 mM L-glutamine, 1 mM sodium pyruvate, 0.1 mM non-essential amino acids, 10 mM HEPES, 100 U/mL penicillin and 100 μg/mL streptomycin (all from Lonza) in the presence of 50 ng/mL GM-CSF (R&D Systems, Minneapolis, MN). […]
Mitochondrial membrane potential was assessed by incubating with 10 nM MitoTracker Green and 5 nM MitoTracker DeepRed (Thermo Fisher Scientific, Waltham, MA) in PBS containing 1% (w/v) BSA in PBS (PBS/BSA) at 37° C. for 15 min. […] Flow cytometry data were acquired with a FACSCanto II flow cytometer (BD Biosciences, San Jose, CA) and analyzed with FlowJo software (Tree Star, Ashland, OR).

[2] = test system: human monocytes differentiated into macrophages under lactic acidosis (LA-Mφ); assay: Intracellular ATP levels in macrophages under lactic acidosis; format: cell-based; details: 5 mM AcAc, 10 mM lactic acid, FIG. 1A
Protocol: (§1) Peripheral blood mononuclear cells (PBMC) were obtained from healthy human volunteers (Blood collection center, Angers, France; agreement ANG-2017-01) by standard density-gradient centrifugation on lymphocyte separation medium (Eurobio, Courtaboeuf, France). CD14+ monocytes were then isolated by positive magnetic cell-sorting (Miltenyi Biotec, Bergisch Gladbach, Germany). […]
The intracellular levels of ATP in whole-cell lysates were determined with enzymatic assays (Abcam, Cambridge, UK), according to the manufacturer's instructions. ATP was quantified in (i) macrophages generated in the absence (Mφ) or presence of lactic acid (LA-Mφ) or of lactic acid and acetoacetate (LA-Mφ+AcAc), (ii) macrophages with or without depolarized mitochondria (“Depol” and “Pol” populations, respectively) isolated from day 3 LA-Mφ by flow cytometry using MitoTracker Green and MitoTracker Deep Red probes (purity>99%) and, (iii) PBMC isolated from septic shock patients (n=3) were cultured for 24 h in a medium containing 0.5 g/L glucose, supplemented with 5 mM of acetoacetate (AcAc) or with 2 g/L of glucose (Glc). […]

[3] = test system: human monocytes differentiated into macrophages under lactic acidosis (LA-Mφ); assay: Mitochondrial mass (mtDNA copy number) and NRF2 mRNA expression; format: cell-based; details: data not shown
Text: as §1
Cells were lysed in Trizol reagent (Life Technologies, Thermo Fisher Scientific), and total RNA was extracted with the RNeasy Micro kit (Qiagen, Hilden, Germany) and then reverse-transcribed with the Superscript II reverse transcriptase (Life Technologies). Levels of mRNA encoding the indicated proteins were then analyzed by subjecting the cDNA obtained by reverse transcription to qPCR. Relative quantification was performed by the 2^−ΔΔCT method, with RPS18, EF1A, TBP, RPL13A and PPIA as references. Results are expressed as relative mRNA levels.
Mitochondrial DNA (mtDNA) content was determined by qPCR with primers specific for the ND4 and COX1 genes, and was weighted according to nuclear DNA levels, which were quantified by analyzing […], as previously described (23).

[4] = test system: human monocytes exposed to lactic acid; assay: Intracellular pH (SNARF probe, flow cytometry); format: cell-based; details: 10 mM lactic acid with 5 mM AcAc; FIG. 2E
Protocol: as §1
Intracellular pH (pHi) was measured by incubating 3×10^5 Mφ with 500 nM pH-sensitive dye carboxy-SNARF-AM (Life Technologies, Carlsbad, CA) in PBS/BSA at 37° C. for 20 min and then performing flow cytometry analysis. We determined pHi as the ratio of fluorescence intensities at two emission wavelengths (585/42 nm and 700/60 nm PMTs). SNARF fluorescence in macrophages was calibrated with a high-potassium buffer (39.6 mM NaCl, 120 mM KCl, 2.3 mM CaCl2), 1 mM MgCl2, 5 mM HEPES, 10 mM glucose) at pH values of 6.5 to 8, in the presence of 10 μM nigericin (Sigma-Aldrich); nigericin exchanges external potassium with internal protons to equilibrate extracellular and intracellular pH.

[5] = test system: human monocyte-derived macrophages (Mφ, LA-Mφ); assay: Cytokine secretion after LPS stimulation (ELISA); format: cell-based; details: day 5, LPS 16 h, FIG. 3
Protocol: Peripheral blood mononuclear cells (PBMC) were obtained from healthy human volunteers (Blood collection center, Angers, France; agreement ANG-2017-01) by standard density-gradient centrifugation on lymphocyte separation medium (Eurobio, Courtaboeuf, France). CD14+ monocytes were then isolated by positive magnetic cell-sorting (Miltenyi Biotec, Bergisch Gladbach, Germany). Monocytes (1×10^6 cells/mL) were cultured in complete medium (CM) consisting of RPMI 1640 (Lonza, Verviers, Belgium) supplemented with 10% fetal calf serum (FCS) (Eurobio), 2 mM L-glutamine, 1 mM sodium pyruvate, 0.1 mM non-essential amino acids, 10 mM HEPES, 100 U/mL penicillin and 100 μg/mL streptomycin (all from Lonza) in the presence of 50 ng/mL GM-CSF (R&D Systems, Minneapolis, MN).
Experiments were performed in the presence of 10 mM lactic acid (Sigma-Aldrich, St Louis, MO) resulting in a pHe of 6.5 to generate LA-Mφ (lactic acidosis conditioning), 12.35 mM HCl to reach a final pHe of 6.5 and to generate HCl-Mφ(acidosis conditioning), 10 mM sodium lactate (Sigma-Aldrich) to generate lactate-Mφ (lactosis conditioning, pH 7.3), in the absence or presence of 5 mM lithium acetoacetate (AcAc) (Sigma-Aldrich, St Louis, MO).
Day 5 GM-Mϕ, GM+LA-Mϕ and GM+LA-Mϕ+AcAc were stimulated with 200 ng/mL LPS (Sigma-Aldrich). Cytokines were quantified by ELISA (R&D Systems) in the supernatants collected at 16 h.

[6] = test system: PBMC from septic shock patients; assay: Mitochondrial depolarization in cultured PBMC from sepsis patients; format: cell-based, human; details: 24 h, medium with 5 mM AcAc, FIG. 4B
Protocol: Mitochondrial membrane potential was assessed by incubating with 10 nM MitoTracker Green and 5 nM MitoTracker DeepRed (Thermo Fisher Scientific, Waltham, MA) in PBS containing 1% (w/v) BSA in PBS (PBS/BSA) at 37° C. for 15 min. Cells were washed and incubated with 0.5 μg/mL DAPI to exclude dead cells. Flow cytometry data were acquired with a FACSCanto II flow cytometer (BD Biosciences, San Jose, CA) and analyzed with FlowJo software (Tree Star, Ashland, OR).
Peripheral blood mononuclear cells (PBMC) from septic patients and healthy subjects were purified by standard density-gradient centrifugation on lymphocyte separation medium (Eurobio, Courtaboeuf, France). PBMC were cultured for 24 h in a medium consisting of RPMI 1640 medium with L-glutamine and without glucose (Lonza, Verviers, Belgium) and supplemented with 6% FCS (Eurobio), 3% autologous plasma, 0.5 g/L glucose, 100 U/mL penicillin and 100 μg/mL streptomycin (all from Lonza) in the presence of 2 ng/mL GM-CSF (R&D Systems). In some experiments, the culture medium was supplemented with 5 mM AcAc or adjusted to 4 g/L glucose. After 24 h culture, the percentage of cells with depolarized mitochondria was assessed as described above. After 3 days of culture, intracellular ATP has been quantified as described above.

[7] = test system: PBMC from septic shock patients; assay: Intracellular ATP in PBMC from septic shock patients; format: cell-based, human; details: 5 mM AcAc, normalized on 0.5 g/L glucose, FIG. 1B
Protocol: The intracellular levels of ATP in whole-cell lysates were determined with enzymatic assays (Abcam, Cambridge, UK), according to the manufacturer's instructions. ATP was quantified in (i) macrophages generated in the absence (Mφ) or presence of lactic acid (LA-Mφ) or of lactic acid and acetoacetate (LA-Mφ+AcAc), (ii) macrophages with or without depolarized mitochondria (“Depol” and “Pol” populations, respectively) isolated from day 3 LA-Mφ by flow cytometry using MitoTracker Green and MitoTracker Deep Red probes (purity>99%) and, (iii) PBMC isolated from septic shock patients (n=3) were cultured for 24 h in a medium containing 0.5 g/L glucose, supplemented with 5 mM of acetoacetate (AcAc) or with 2 g/L of glucose (Glc). Results are normalized on the condition 0.5 g/L glucose (None).
Peripheral blood mononuclear cells (PBMC) from septic patients and healthy subjects were purified by standard density-gradient centrifugation on lymphocyte separation medium (Eurobio, Courtaboeuf, France). […] After 24 h culture, the percentage of cells with depolarized mitochondria was assessed as described above. After 3 days of culture, intracellular ATP has been quantified as described above.

U937 cell line = details: cited from earlier work

## CC(=O)CC(=O)[O-].[Li+] [AcAc, lithium acetoacetate]
[1]
  mitochondrial depolarization: did not exhibit the mitochondrial depolarization
[2]
  intracellular levels of ATP: restored the intracellular levels of ATP
[3]; LA-Mφ+AcAc (5 mM AcAc, 10 mM lactic acid)
  mitochondrial mass: no reduction of the mitochondrial mass
[3]; LA-Mφ+AcAc relative to LA-Mφ
  expression of NRF2: tend to increase
[4]
  immediate short-term decrease in pHi induced by extracellular acidosis: remained detectable
[5]; LA-Mφ+AcAc
  combined effect of AcAc and lactic acid on capacity to produce inflammatory cytokines and trophic factors: acted synergistically
[5]; ELISA
  cytokine phenotype of monocytes differentiated in the presence of AcAc: TNFαhigh IL-1βhigh IL-6high OSMhigh and VEGFhigh phenotype
[6]
  percentage of cells with depolarized mitochondria: significantly reduced
[7]
  levels of intracellular ATP: increased
U937 cell line
  IL-6 and TNF production: enhance IL-6 and TNF production
